Data published in ChEMBL document CHEMBL1201862, “PubChem BioAssay data set” (2004).
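Each compound was tested at five concentrations against cells in 96-well plates for 48 hours. Here, GI50 denotes the concentration required for 50% inhibition of growth.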 Calls of active or inactive are those of the source. No stated cut-off is given here; in the data, active = GI50 up to about 1.1 µM and inactive = higher.

Assays:
Experiment in all cases: NCI tumour cell line growth inhibition, 48 h
KM12 = tested on: KM12
M19-MEL = tested on: M19-MEL
SW-620 = tested on: SW-620
EKVX = tested on: EKVX
HCC 2998 = tested on: HCC 2998
DLD-1 = tested on: DLD-1
RXF 393 = tested on: RXF 393
Malme-3M = tested on: Malme-3M
NCI-H226 = tested on: NCI-H226
HOP-92 = tested on: HOP-92
SNB-78 = tested on: SNB-78
786-0 = tested on: 786-0
HT-29 = tested on: HT-29
NCI-H460 = tested on: NCI-H460
U-251 = tested on: U-251
MOLT-4 = tested on: MOLT-4
SF-268 = tested on: SF-268
OVCAR-4 = tested on: OVCAR-4
OVCAR-8 = tested on: OVCAR-8
NCI-H522 = tested on: NCI-H522
UACC-257 = tested on: UACC-257
SN12C = tested on: SN12C
A498 = tested on: A498
RPMI-8226 = tested on: RPMI-8226
UACC-62 = tested on: UACC-62
SK-MEL-2 = tested on: SK-MEL-2
DMS-273 = tested on: DMS-273
OVCAR-3 = tested on: OVCAR-3
LOX IMVI = tested on: LOX IMVI
SF-295 = tested on: SF-295
ACHN = tested on: ACHN
IGROV-1 = tested on: IGROV-1
COLO 205 = tested on: COLO 205
SNB-19 = tested on: SNB-19
HCT-15 = tested on: HCT-15
NCI-H23 = tested on: NCI-H23
TK-10 = tested on: TK-10
SNB-75 = tested on: SNB-75
HOP-62 = tested on: HOP-62
OVCAR-5 = tested on: OVCAR-5
HCT-116 = tested on: HCT-116
SK-OV-3 = tested on: SK-OV-3
KM-20L2 = tested on: KM-20L2
SF-539 = tested on: SF-539
HL-60 = tested on: HL-60
A549 = tested on: A549
DMS-114 = tested on: DMS-114
CAKI-1 = tested on: CAKI-1
UO-31 = tested on: UO-31
CCRF-CEM = tested on: CCRF-CEM
K562 = tested on: K562
SK-MEL-28 = tested on: SK-MEL-28

O=C(/C=C/c1c(O)ccc2ccccc12)c1ccc2ccccc2c1
GI50 (KM12): > 100 µM (inactive)
GI50 (M19-MEL): 18.2 µM (inactive)
GI50 (SW-620): > 100 µM (inactive)
GI50 (EKVX): > 100 µM (inactive)
GI50 (HCC 2998): > 100 µM (inactive)
GI50 (DLD-1): > 100 µM (inactive)
GI50 (RXF 393): > 100 µM (inactive)
GI50 (Malme-3M): > 100 µM (inactive)
GI50 (NCI-H226): > 100 µM (inactive)
GI50 (HOP-92): > 100 µM (inactive)
GI50 (SNB-78): > 100 µM (inactive)
GI50 (786-0): > 100 µM (inactive)
GI50 (HT-29): > 100 µM (inactive)
GI50 (NCI-H460): > 100 µM (inactive)
GI50 (U-251): > 100 µM (inactive)
GI50 (MOLT-4): > 100 µM (inactive)
GI50 (SF-268): > 100 µM (inactive)
GI50 (OVCAR-4): > 100 µM (inactive)
GI50 (OVCAR-8): > 100 µM (inactive)
GI50 (NCI-H522): > 100 µM (inactive)
GI50 (UACC-257): > 100 µM (inactive)
GI50 (SN12C): > 100 µM (inactive)
GI50 (A498): > 100 µM (inactive)
GI50 (RPMI-8226): > 100 µM (inactive)
GI50 (UACC-62): 59.8 µM (inactive)
GI50 (SK-MEL-2): > 100 µM (inactive)
GI50 (DMS-273): > 100 µM (inactive)
GI50 (OVCAR-3): > 100 µM (inactive)
GI50 (LOX IMVI): > 100 µM (inactive)
GI50 (SF-295): > 100 µM (inactive)
GI50 (ACHN): > 100 µM (inactive)
GI50 (IGROV-1): > 100 µM (inactive)
GI50 (COLO 205): > 100 µM (inactive)
GI50 (SNB-19): > 100 µM (inactive)
GI50 (HCT-15): > 100 µM
GI50 (NCI-H23): > 100 µM (inactive)
GI50 (TK-10): > 100 µM (inactive)
GI50 (SNB-75): > 100 µM (inactive)
GI50 (HOP-62): > 100 µM (inactive)
GI50 (OVCAR-5): > 100 µM (inactive)
GI50 (HCT-116): > 100 µM (inactive)
GI50 (SK-OV-3): > 100 µM (inactive)
GI50 (KM-20L2): > 100 µM (inactive)
GI50 (SF-539): > 100 µM (inactive)
GI50 (HL-60): > 100 µM (inactive)
GI50 (A549): > 100 µM (inactive)
GI50 (DMS-114): > 100 µM (inactive)
GI50 (CAKI-1): > 100 µM (inactive)
GI50 (UO-31): > 100 µM (inactive)
GI50 (CCRF-CEM): > 100 µM (inactive)
GI50 (K562): > 100 µM (inactive)
GI50 (SK-MEL-28): > 100 µM (inactive)
